Reference: patent US20230118497A1, “PYRAZOLE-CONTAINING POLYCYCLIC DERIVATIVE INHIBITOR, PREPARATION METHOD THEREFOR AND APPLICATION THEREOF” (Shanghai Hansoh Biomedical Co., Ltd., priority 2019, published 2023)
Like-named read-outs stand apart in the source and are kept apart here.

Key:
[1] = Plasma protein binding rate (dog); type: in vitro ADME; conditions: 37° C. 6 h
Method: Test Example 6. Assay of Plasma Protein Binding Rate
The objective of the experiment is to determine the plasma protein binding of the compounds of the Examples in plasma.
The compound of the Example was formulated into 1 mM solution A with DMSO;
The solution A was added to the plasma solution to obtain 5 μM solution B;
1) 200 μL of solution B was added to the inside of the membrane;
2) […] of PBS was added to the outside of the membrane;
3) Incubation in a water bath at 37° C. for 6 h;
4) The sample was diluted and analyzed by mass spectrometry.

[2] = target: T1, CYP450 enzyme isoform 2C9 (Homo sapiens, UniProt P11712); experiment: CYP enzyme single-point inhibition assay, 2C9; type: in vitro ADME; conditions: human liver microsome, single-point method
T1 construct: single-point method using human liver microsome incubation system; from tissue; host or cells: human liver microsomes
Method: (§1) Test Example 7. CYP Enzyme Single-Point Inhibition Assay
(§2) The inhibition of the compounds on CYP450 enzyme isoformwas rapidly predicted by single-point method using human liver microsome incubation system.
(§3) 2.5 mM NADPH: 4.165 mg of NADPH (reduced nicotinamide adenine dinucleotide phosphate) was weighed, followed by addition of 100 mM phosphate buffer to 2 mL. 0.25 mg/mL microsome solution: 4 mL of 100 mM phosphate buffer was added to 50 μL of 20 mg/mL microsome solution and mixed well.
(§4) The test compound of the Example was weighed, diluted to 10 mM with DMSO and then to 100 μM with 100 mM phosphate buffer.
(§5) 1. 40 μL of liver microsome, 10 μL of substrate and 10 μL of the test compound were added to a 96-well plate and pre-incubated for 3 min.
(§6) 2. 40 μL of NADPH was added.
(§7) 3. 300 μL of acetonitrile stop solution containing internal standard was added at 20 min.
(§8) 4. The sample was centrifuged and injected.

[3] = Pharmacokinetic assay in Balb/C mice; type: in vivo; conditions: male, mouse, po, p.o. 5 mg/kg, plasma, 0.5% CMC-Na (1% Tween 80); for AUC(0-t): read-out: Area under curve AUC0-t; for MRT inf: read-out: Average residence time MRT0-∞; for half-life: read-out: Half life t1/2 (converted); for Tmax: read-out: Peak time tmax; for Cmax: read-out: Plasma concentration Cmax
Method: Test Example 3. Pharmacokinetic Assay in Balb/C Mice
Balb/C mice were used as test animals. The pharmacokinetic behavior of the compounds of Examples was studied in mouse body (plasma) by orally administration at a dose of 5 mg/kg.
Male Balb/C mice (6 mice per group), purchased from Shanghai Jiesijie Laboratory Animal Co., LTD, with Certificate No.: SCXK (Shanghai) 2013-0006 N0.311620400001794.
5 g of hydroxyethyl cellulose (HEC, CMC-Na, viscosity: 800-1200 Cps) was weighed and dissolved in 1000 mL of purified water, followed by addition of 10 g of Tween80.
After an overnight fast, male Balb/C mice were administered p.o. with the test compound at a dose of 5 mg/kg and a volume of 10 mL/kg.
0.04 mL of blood was taken from the orbit of the mouse before administration and at 0, 0.5, 1, 2, 4, 6, 8 and 24 hours after administration. The samples were stored in EDTA-K2 tubes, and centrifuged for 6 minutes at 4° C., 6000 rpm to separate the plasma. The plasma samples were stored at −80° C.
1) 160 μL of acetonitrile was added to 20 μL of the plasma sample for precipitation, and then the mixture was centrifuged at 3500×g for 5 to 20 minutes. 2) After the above process, 100 μL of the supernatant was taken to analyze the concentration of the test compound by LC/MS/MS.
2.7 Liquid Chromatography Analysis • Liquid chromatography condition: Shimadzu LC-20AD pump • Mass spectrometry condition: AB Sciex API 4000 mass spectrometer • Chromatographic column: phenomenex Gemiu 5 um C18 50×4.6 mm • Mobile phase: Eluent A was 0.1% formic acid in water, and Eluent B was acetonitrile • Flow rate: 0.8 mL/min • Elution time: 0-4.0 minutes the eluent is as follows:
The main parameters of pharmacokinetics were calculated by WinNonlin 8.2.

[4] = Metabolic stability in liver microsome (human); type: in vitro ADME; conditions: human liver microsome 0.5 mg/mL, compound 1 μM; for t1/2 / half-life at 1 μM: NADPH/UDPGA; for half-life at 1 μM: liver microsomes
Method: Test Example 5. Assay of Metabolic Stability in Liver Microsome
The objective of the experiment is to determine the stability of the compounds of the Examples in liver microsome of mouse, rat, dog and human.
Formulation of the working solution of the compound: The stock solution of the compound was added to phosphate buffer, and the final concentration was 20 μM.
Liver microsome was diluted with 100 mM phosphate buffer to obtain a final concentration of 0.625 mg/mL.
NADPH (reduced nicotinamide adenine dinucleotide phosphate) and UDPGA (uridine diphosphate glucuronic acid) were weighed respectively, followed by addition of 100 mM phosphate buffer. The final concentrations were 20 mM.
1 mg of Alamethicin was weighed, to which 200 μL of DMSO was added to obtain a 5 mg/mL solution. The solution was diluted with phosphate buffer to obtain a final concentration of 50 μg/mL.
2.5 Formulation of the reaction stop solution Stop solution: Cold acetonitrile containing 100 ng/mL labetalol hydrochloride and 400 ng/mL tolbutamide as internal standards.
400 μL of the prepared liver microsome, 25 μL of the working solution of the compound and 25 μL of Alamethicin were added to a 96-well plate successively, which was then pre-incubated at 37° C. for 10 min. 50 μL of the prepared NADPH/UDPGA was added to initiate the reaction, and the plate was incubated at 37° C. The total volume of the reaction system was 500 μL. The final contents of the components were as follows: […]

[5] = target: T2, CYP450 enzyme isoform 3A4 (Homo sapiens, UniProt P08684); experiment: CYP enzyme single-point inhibition assay, 3A4; type: in vitro ADME; conditions: human liver microsome, single-point method
T2 construct: single-point method using human liver microsome incubation system; from tissue; host or cells: human liver microsomes
Method: as §1, §2, §3, §4, §5, §6, §7, §8

T2 sequence (P08684 whole entry, canonical isoform): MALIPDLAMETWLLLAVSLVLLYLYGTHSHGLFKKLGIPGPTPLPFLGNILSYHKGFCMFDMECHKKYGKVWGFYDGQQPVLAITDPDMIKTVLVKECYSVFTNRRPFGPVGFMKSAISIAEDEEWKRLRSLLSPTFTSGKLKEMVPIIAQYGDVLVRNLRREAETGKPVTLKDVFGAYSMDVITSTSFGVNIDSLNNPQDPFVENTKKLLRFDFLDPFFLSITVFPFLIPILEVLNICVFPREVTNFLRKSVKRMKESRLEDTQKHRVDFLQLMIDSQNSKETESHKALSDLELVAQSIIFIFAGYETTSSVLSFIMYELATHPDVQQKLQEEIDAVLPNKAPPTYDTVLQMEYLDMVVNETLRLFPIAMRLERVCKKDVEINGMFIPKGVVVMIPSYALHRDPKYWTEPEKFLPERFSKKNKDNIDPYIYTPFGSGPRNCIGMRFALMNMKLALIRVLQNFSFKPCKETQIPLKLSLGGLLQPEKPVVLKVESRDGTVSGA
T1 sequence (P11712 whole entry, canonical isoform): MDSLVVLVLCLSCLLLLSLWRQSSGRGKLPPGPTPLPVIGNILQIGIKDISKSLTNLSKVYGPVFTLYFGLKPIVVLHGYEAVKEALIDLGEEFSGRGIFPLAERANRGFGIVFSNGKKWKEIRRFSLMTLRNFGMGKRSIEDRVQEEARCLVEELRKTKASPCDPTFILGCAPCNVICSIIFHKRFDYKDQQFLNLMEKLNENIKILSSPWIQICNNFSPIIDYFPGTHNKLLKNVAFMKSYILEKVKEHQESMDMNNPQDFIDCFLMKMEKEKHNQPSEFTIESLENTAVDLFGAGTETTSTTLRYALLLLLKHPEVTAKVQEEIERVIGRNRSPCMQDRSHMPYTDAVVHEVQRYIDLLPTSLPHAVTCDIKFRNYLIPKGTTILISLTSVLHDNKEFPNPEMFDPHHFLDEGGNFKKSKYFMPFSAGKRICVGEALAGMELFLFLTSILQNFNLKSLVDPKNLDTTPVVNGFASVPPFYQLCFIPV

SMILES | fraction unbound at 6 h, 5 μM [1] | IC50 [2] | AUC(0-t) [3] | MRT inf [3] | half-life [3] | Tmax [3] | Cmax [3] | Remaining (%, 60 min) [4] | t1/2 [4] | IC50 ([5]; 3A4-M, read-out: 3A4-M IC50) | IC50 ([5]; 3A4-T, read-out: 3A4-T IC50) | half-life at 1 μM [4]
CCc1cc2n(CC(=O)Nc3ccc(F)cn3)c(=O)c3ccc(C(F)(F)F)nc3n2n1 [Example 34, 2-(2-Ethyl-5-oxo-8-(trifluoromethyl)pyrazolo[1,5-a]pyrido[3,2-e]pyrimidin-4(5H)-yl)-N-(5-fluoropyridin-2-yl)acetamide] | 0.032 | > 100 µM | 7580 ng·h/mL | 2.3 h | 1.4 h | 1 h | 2360 ng/mL | 113.9% | ∞ | > 100 µM | > 100 µM | –
O=C(Cn1c(=O)c2ccc(C(F)(F)F)nc2n2nc(Br)cc12)Nc1ccc(F)cn1 [Example 61-A, 2-(2-bromo-5-oxo-8-(trifluoromethyl)pyrazolo[1,5-a]pyrido[3,2-e]pyrimidin-4(5H)-yl)-N-(5-fluoropyridin-2-yl)acetamide] | 0.037 | > 100 µM | 30500 ng·h/mL | 5.6 h | 4.6 h | 2 h | 3430 ng/mL | 100.4% | ∞ | > 100 µM | > 100 µM | –
N#Cc1cc2n(CC(=O)Nc3ccc(F)cn3)c(=O)c3ccc(C(F)(F)F)nc3n2n1 [Example 68, 2-(2-Cyano-5-oxo-8-(trifluoromethyl)pyrazolo[1,5-a]pyrido[3,2-e]pyrimidin-4(5H)-yl)-N-(5-fluoropyridin-2-yl)acetamide] | 0.084 | > 100 µM | 10200 ng·h/mL | 3.8 h | 1.8 h | 2 h | 1830 ng/mL | 101.2% | – | > 100 µM | > 100 µM | 23.4 h
O=C(Cn1c(=O)c2ccc(C(F)(F)F)nc2n2nccc12)Nc1ccc(F)cn1 [Example 78, N-(5-Fluoropyridin-2-yl)-2-(5-oxo-8-(trifluoromethyl)pyrazolo[1,5-a]pyrido[3,2-e]pyrimidin-4(5H)-yl)acetamide] | 0.147 | > 100 µM | 5040 ng·h/mL | 2.5 h | 1.6 h | 1 h | 1290 ng/mL | 97.5% | – | > 100 µM | > 100 µM | 14.7 h
N#Cc1cnn2c3nc(C(F)(F)F)ccc3c(=O)n(CC(=O)Nc3ccc(F)cn3)c12 [Example 80, 2-(3-Cyano-5-oxo-8-(trifluoromethyl)pyrazolo[1,5-a]pyrido[3,2-e]pyrimidin-4(5H)-yl)-N-(5-fluoropyridin-2-yl)acetamide] | 0.135 | – | – | – | – | – | – | – | – | – | – | –
